In this assay the test system is drug-resistant Mycobacterium tuberculosis. The note with it: drug-resistant Mycobacterium tuberculosis (PAS, streptomycin, INH); peptide 10 micrograms per ml; seven days.

Residues, ends and D or L forms follow the SMILES beside them.

As a reminder, the % inhibition is the drop in the measured response relative to a control, in per cent. Lower therefore signals little suppression.

`C[C@@H](O)[C@H](N)C(=O)N[C@@H](CC(=O)O)C(=O)N[C@H](C(=O)N[C@@H](CO)C(=O)N[C@@H](Cc1c[nH]cn1)C(=O)N[C@@H](Cc1c[nH]cn1)C(=O)N[C@@H](CC(=O)O)C(=O)N[C@@H](CCC(N)=O)C(=O)N[C@@H](CC(=O)O)C(=O)N[C@@H](Cc1c[nH]cn1)C(=O)N1CCC[C@H]1C(=O)N[C@H](C(=O)N[C@@H](Cc1ccccc1)C(=O)N[C@@H](CC(N)=O)C(=O)O)[C@@H](C)O)[C@@H](C)O` [FGRP, Thr-Asp-Thr-Ser-His-His-Asp-Gln-Asp-His-Pro-Thr-Phe-Asn-OH] (H-TDTSHHDQDHPTFN-OH): the “% inhibition” value is recorded as 0.0%.

For the origin of these results see patent US20100197602A1, “USE OF FOLLICULAR GONADOTROPIN RELEASING PEPTIDE AS A THERAPEUTIC AGENT IN THE TREATMENT OF STREPTOCOCCUS PNEUMONIAE INFECTION” (priority 2007, published 2010).
